{"source": "patent US6706663B2", "about": "“Herbicidal 3-heterocyclic substituted benzisothiazole and benzisoxazole compounds” (Wyeth, priority 2000, dated 2004)", "key": {"[1]": {"system": "TRZAWR (Wheat, Winter, cv Riband)", "assay": "Postemergence herbicidal evaluation", "type": "in vivo, Triticum aestivum", "settings": "postemergence, rate 0.0620 kg/ha", "method": "(§1) In the tests, seedling plants are grown in jiffy flats for about two weeks. […] After spraying, the plants are placed on greenhouse benches and are cared for in accordance with conventional greenhouse procedures. From four to five weeks after treatment, the seedling plants are examined and rated according to the rating system set forth below. Where more than one test is involved for a given compound, the data are averaged.\n(§2) Results of herbicide evaluation are expressed on a rating scale (0-9). The scale is based upon a visual observation of plant stand, vigor, malformation, size, chlorosis and overall plant appearance as compared with a control."}, "[2]": {"system": "ECHCG (Echinochloa crus-galli)", "assay": "Postemergence herbicidal evaluation", "type": "in vivo, (L.) Beau", "settings": "postemergence, rate 0.0620 kg/ha", "method": "as §1, §2"}, "SETVI (Setaria viridis) [3]": {"system": "SETVI (Setaria viridis)", "assay": "Preemergence herbicidal evaluation", "type": "in vivo, (L.) Beau", "settings": "Rate 0.2500 kg/ha; rated 4-5 weeks after treatment", "excerpt": "as §2\n(§3) The preemergence herbicidal activity of the test compounds of the present invention is exemplified by the following tests in which the seeds of a variety of monocotyledonous and dicotyledonous plants are separately mixed with potting soil and planted on top of approximately one inch of soil in separate pint cups. […] The treated cups are then placed on greenhouse benches, watered and cared for in accordance with conventional greenhouse procedures. From four to five weeks after treatment, the tests are terminated and each cup is examined and rated according to the rating system provided in Example 87. The plant species used and the compounds evaluated are the same as those shown in Example 87."}, "[4]": {"system": "ECHCG (Echinochloa crus-galli)", "assay": "Preemergence herbicidal evaluation", "type": "in vivo, (L.) Beau", "settings": "Rate 0.2500 kg/ha; rated 4-5 weeks after treatment", "excerpt": "as §2, §3"}, "[5]": {"system": "SAGPY (Sagittaria pygmaea)", "assay": "Flooded paddy, preemergence weed control", "type": "in vivo, L.", "settings": "rate 0.1250 kg/ha, rated 3-4 weeks after treatment, 0-9 rating scale", "method": "as §2\n(§4) Preemergence herbicidal activity under flooded paddy conditions is determined as follows: plant seeds or propagating organs are planted in the top 0.5 cm of silt loam soil in 32 oz. plastic containers with a diameter of 10.5 cm and no drainage holes. Water is added to these containers and maintained at 1.5 to 3 cm above the soil surface for the duration of the experiment. […] The treated containers are placed on greenhouse benches and cared for in accordance with conventional greenhouse procedures."}, "CYPIR (Cyperus iria)": {"system": "CYPIR (Cyperus iria)", "assay": "Flooded paddy, preemergence weed control", "type": "in vivo", "settings": "rate 0.1250 kg/ha, rated 3-4 weeks after treatment, 0-9 rating scale", "method": "as §2, §4"}, "[6]": {"system": "IPOHE (Ipomoea hederacea)", "assay": "Postemergence herbicidal evaluation", "type": "in vivo, (L.) Jacq.", "settings": "postemergence, rate 0.0620 kg/ha", "method": "as §1, §2"}, "ZEAMX (Corn, Field) [7]": {"system": "ZEAMX (Corn, Field)", "assay": "Postemergence herbicidal evaluation", "type": "in vivo, Zea mays, L.", "settings": "postemergence, rate 0.0620 kg/ha", "method": "as §1, §2"}, "[8]": {"system": "ABUTH (Abutilon theophrasti)", "assay": "Postemergence herbicidal evaluation", "type": "in vivo, Medic.", "settings": "postemergence, rate 0.0620 kg/ha", "method": "as §1, §2"}, "[9]": {"system": "ECHORC (Echinochloa oryzoides)", "assay": "Flooded paddy, preemergence weed control", "type": "in vivo, Echinochloa oryzoides (Ard.) Fritsch.", "settings": "rate 0.1250 kg/ha, rated 3-4 weeks after treatment, 0-9 rating scale", "method": "as §2, §4"}, "ZEAMX (Corn, Field) [10]": {"system": "ZEAMX (Corn, Field)", "assay": "Preemergence herbicidal evaluation", "type": "in vivo, Zea mays, L.", "settings": "Rate 0.2500 kg/ha; rated 4-5 weeks after treatment", "excerpt": "as §2, §3"}, "SETVI (Setaria viridis) [11]": {"system": "SETVI (Setaria viridis)", "assay": "Postemergence herbicidal evaluation", "type": "in vivo, (L.) Beau", "settings": "postemergence, rate 0.0620 kg/ha", "method": "In the tests, seedling plants are grown in jiffy flats for about two weeks. The test compounds are dispersed in 50/50 acetone/water mixtures containing 0.5% TWEEN® 20, a polyoxyethylene sorbitan monolaurate surfactant of Atlas Chemical Industries, in sufficient quantities to provide the equivalent of about 0.0040 kg to 1.000 kg per hectare of active compound when applied to the plants through a spray nozzle operating at 40 psi for a predetermined time. After spraying, the plants are placed on greenhouse benches and are cared for in accordance with conventional greenhouse procedures. From four to five weeks after treatment, the seedling plants are examined and rated according to the rating system set forth below. Where more than one test is involved for a given compound, the data are averaged.\nas §2"}, "[12]": {"system": "GLXMAW (Soybean, Williams)", "assay": "Preemergence herbicidal evaluation", "type": "in vivo, Glycine max, (L.) Merr. cv Williams", "settings": "Rate 0.2500 kg/ha; rated 4-5 weeks after treatment", "excerpt": "as §2, §3"}, "[13]": {"system": "AMBEL (Ambrosia artemisifolia)", "assay": "Preemergence herbicidal evaluation", "type": "in vivo, L.", "settings": "Rate 0.2500 kg/ha; rated 4-5 weeks after treatment", "excerpt": "as §2, §3"}, "[14]": {"system": "CASOB (Cassia obtusifolia)", "assay": "Preemergence herbicidal evaluation", "type": "in vivo, L.", "settings": "Rate 0.2500 kg/ha; rated 4-5 weeks after treatment", "excerpt": "as §2, §3"}, "[15]": {"system": "CHEAL (Chenopodium album)", "assay": "Preemergence herbicidal evaluation", "type": "in vivo, L.", "settings": "Rate 0.2500 kg/ha; rated 4-5 weeks after treatment", "excerpt": "as §2, §3"}, "[16]": {"system": "MOOVA (Monochoria vaginalis)", "assay": "Flooded paddy, preemergence weed control", "type": "in vivo, Presl.", "settings": "rate 0.1250 kg/ha, rated 3-4 weeks after treatment, 0-9 rating scale", "method": "as §2, §4"}, "[17]": {"system": "TRZAWR (Wheat, Winter, cv Riband)", "assay": "Preemergence herbicidal evaluation", "type": "in vivo, Triticum aestivum", "settings": "Rate 0.2500 kg/ha; rated 4-5 weeks after treatment", "excerpt": "as §2, §3"}, "ORYSAT (Rice, Tebonnet) [18]": {"system": "ORYSAT (Rice, Tebonnet)", "assay": "Postemergence herbicidal evaluation", "type": "in vivo, Oryza sativa, (L.) Tebonnet", "settings": "postemergence, rate 0.0620 kg/ha", "method": "as §1, §2"}, "[19]": {"system": "IPOHE (Ipomoea hederacea)", "assay": "Preemergence herbicidal evaluation", "type": "in vivo, (L.) Jacq.", "settings": "Rate 0.2500 kg/ha; rated 4-5 weeks after treatment", "excerpt": "as §2, §3"}, "ORYSAT (Rice, Tebonnet) [20]": {"system": "ORYSAT (Rice, Tebonnet)", "assay": "Preemergence herbicidal evaluation", "type": "in vivo, Oryza sativa, (L.) Tebonnet", "settings": "Rate 0.2500 kg/ha; rated 4-5 weeks after treatment", "excerpt": "as §2, §3"}, "[21]": {"system": "GLXMAW (Soybean, Williams)", "assay": "Postemergence herbicidal evaluation", "type": "in vivo, Glycine max, (L.) Merr. cv Williams", "settings": "postemergence, rate 0.0620 kg/ha", "method": "as §1, §2"}, "[22]": {"system": "AMBEL (Ambrosia artemisifolia)", "assay": "Postemergence herbicidal evaluation", "type": "in vivo, L.", "settings": "postemergence, rate 0.0620 kg/ha", "method": "as §1, §2"}, "[23]": {"system": "CASOB (Cassia obtusifolia)", "assay": "Postemergence herbicidal evaluation", "type": "in vivo, L.", "settings": "postemergence, rate 0.0620 kg/ha", "method": "as §1, §2"}, "[24]": {"system": "CHEAL (Chenopodium album)", "assay": "Postemergence herbicidal evaluation", "type": "in vivo, L.", "settings": "postemergence, rate 0.0620 kg/ha", "method": "as §1, §2"}, "GALAP (Galium aparine) [25]": {"system": "GALAP (Galium aparine)", "assay": "Preemergence herbicidal evaluation", "type": "in vivo", "settings": "Rate 0.2500 kg/ha; rated 4-5 weeks after treatment", "excerpt": "as §2, §3"}, "[26]": {"system": "ABUTH (Abutilon theophrasti)", "assay": "Preemergence herbicidal evaluation", "type": "in vivo, Medic.", "settings": "Rate 0.2500 kg/ha; rated 4-5 weeks after treatment", "excerpt": "as §2, §3"}, "ORYSAT (Rice, Tebonnet) [27]": {"system": "ORYSAT (Rice, Tebonnet)", "assay": "Flooded paddy, post-transplant rice tolerance", "type": "in vivo, Oryza sativa, (L.) Tebonnet", "settings": "flooded paddy, post-transplant rice; rate 0.1250 kg/ha; rated 3-4 weeks after treatment; 0-9 rating scale", "method": "as §2\nThe tolerance of transplanted rice to post-transplanted herbicide application is determined as follows: two ten-day-old rice seedlings (cv. Tebonnet) are transplanted into silt loam soil in 32 oz. plastic containers with a diameter of 10.5 cm and no drainage holes. After transplanting, the containers are flooded and the water level is maintained at 1.5 to 3 cm above the soil surface. […] The treated containers are placed on greenhouse benches, watered such that the water level is maintained as stated above, and cared for in accordance with conventional greenhouse procedures."}, "GALAP (Galium aparine) [28]": {"system": "GALAP (Galium aparine)", "assay": "Postemergence herbicidal evaluation", "type": "in vivo", "settings": "postemergence, rate 0.0620 kg/ha", "method": "as §1, §2"}}}
{"compound": "Cn1c(C(F)(F)F)cc(=O)n(-c2ccc3snc(C4OCC(CBr)O4)c3c2)c1=O", "note": "(centres unmarked) [Compound 79, 3-[3-[4-(bromomethyl)-1,3-dioxolan-2-yl]-1,2-benzisothiazol-5-yl]-1-methyl-6-(trifluoromethyl)uracil]", "values": [{"measurement": "TRZAWR herbicidal rating", "setting": "[1]", "result": 2.5}, {"measurement": "ECHCG herbicidal rating", "setting": "[2]", "result": 4.0}, {"measurement": "Preemergence herbicidal rating SETVI", "setting": "SETVI (Setaria viridis) [3]", "result": 9.0}, {"measurement": "Preemergence herbicidal rating ECHCG", "setting": "[4]", "result": 9.0}, {"measurement": "herbicidal rating, SAGPY", "setting": "[5]", "result": 3.0}, {"measurement": "herbicidal rating, CYPIR", "setting": "CYPIR (Cyperus iria)", "result": 9.0}, {"measurement": "IPOHE herbicidal rating", "setting": "[6]", "result": 8.0}, {"measurement": "ZEAMX herbicidal rating", "setting": "ZEAMX (Corn, Field) [7]", "result": 3.5}, {"measurement": "ABUTH herbicidal rating", "setting": "[8]", "result": 9.0}, {"measurement": "herbicidal rating, ECHORC", "setting": "[9]", "result": 9.0}, {"measurement": "Preemergence herbicidal rating ZEAMX", "setting": "ZEAMX (Corn, Field) [10]", "result": 7.0}, {"measurement": "SETVI herbicidal rating", "setting": "SETVI (Setaria viridis) [11]", "result": 6.0}, {"measurement": "Preemergence herbicidal rating GLXMAW", "setting": "[12]", "result": 9.0}, {"measurement": "Preemergence herbicidal rating AMBEL", "setting": "[13]", "result": 9.0}, {"measurement": "Preemergence herbicidal rating CASOB", "setting": "[14]", "result": 9.0}, {"measurement": "Preemergence herbicidal rating CHEAL", "setting": "[15]", "result": 9.0}, {"measurement": "herbicidal rating, MOOVA", "setting": "[16]", "result": 9.0}, {"measurement": "Preemergence herbicidal rating TRZAWR", "setting": "[17]", "result": 8.0}, {"measurement": "ORYSAT herbicidal rating", "setting": "ORYSAT (Rice, Tebonnet) [18]", "result": 3.5}, {"measurement": "Preemergence herbicidal rating IPOHE", "setting": "[19]", "result": 7.0}, {"measurement": "Preemergence herbicidal rating ORYSAT", "setting": "ORYSAT (Rice, Tebonnet) [20]", "result": 8.0}, {"measurement": "GLXMAW herbicidal rating", "setting": "[21]", "result": 6.0}, {"measurement": "AMBEL herbicidal rating", "setting": "[22]", "result": 9.0}, {"measurement": "CASOB herbicidal rating", "setting": "[23]", "result": 6.0}, {"measurement": "CHEAL herbicidal rating", "setting": "[24]", "result": 9.0}, {"measurement": "Preemergence herbicidal rating GALAP", "setting": "GALAP (Galium aparine) [25]", "result": 9.0}, {"measurement": "Preemergence herbicidal rating ABUTH", "setting": "[26]", "result": 9.0}, {"measurement": "herbicidal rating, ORYSAT (rice tolerance)", "setting": "ORYSAT (Rice, Tebonnet) [27]", "result": 7.0}, {"measurement": "GALAP herbicidal rating", "setting": "GALAP (Galium aparine) [28]", "result": 4.0}]}
